Source: article PMC8308845, “Discovery of Novel Chemical Series of OXA-48 β-Lactamase Inhibitors by High-Throughput Screening” (Pharmaceuticals, 2021)

Experiments:
E. coli ATCC25922 = assay: MIC by broth microdilution, antibiotic-sensitive strain; format: cell-based; conditions: Escherichia coli, β-lactam alone, read-out: MIC β-lactam
Excerpt: (§1) To evaluate the capability of restoring β-lactam susceptibility, the two most promising representatives of SC_2 (ID3) and SC_7 (ID2) were screened alone and in combination with ampicillin (AMP) and IMP against sensitive and resistant Gram-negative bacteria. Avibactam and tazobactam were also included in the MIC characterization as BLI reference compounds. Specifically, we used E. coli ATCC25922 as antibiotic-sensitive strain, while E. coli ATCC BAA-2523 and K. pneumoniae ATCC BAA-2524 as β-lactam-resistant bacteria, producing OXA-48 carbapenemase.
(§2) Test compounds and tazobactam were tested at 32 µg/mL, while avibactam was applied at 4 µg/mL. […] Both antibiotics were selected for the combination study as they can be hydrolyzed by the target OXA-48 enzyme.
(§3) MIC values were determined by the broth dilution method and interpreted using published guidelines described by Clinical and Laboratory Standards Institute (CLSI).
(§4) All BLIs were dissolved in 100% DMSO and they were tested at a fixed concentration of 32 µg/mL and 1% of DMSO final concentration. Avibactam was used as reference β-lactamase inhibitor. All antimicrobials were prepared in line with CLSI susceptibility testing standards. AMP (USP # 1033000; batch no. K1M493) was dissolved at 5.12 mg/mL, IMP (USP # 1337809; batch no. R038R0) and avibactam (Biochem # NXL 104; batch no. 20180726) were dissolved at 1.28 mg/mL in the respective solvents recommended by CLSI (2). Solutions at 4X the final concentrations of the test range were made in Cation adjusted Mueller-Hinton broth (CA-MHB, BD # 212322; batch no. 6117994; Expiry date: 29.02.2020) by serial dilutions, and then diluted 2-fold with CA-MHB (for antimicrobials alone), or with the BLIs/avibactam (for combinations of new/reference inhibitors and antimicrobials). Moreover, all BLIs were tested alone at a fixed concentration of 32 μg/mL. The final concentration of DMSO in the test tubes was 1% for each different combination.
(§5) 50 μL of each well were then transferred from the masterblock into 96-well plates to whom were then added 50 μL of the final inoculum. MIC tests were performed by broth microdilution in line with CLSI susceptibility testing standards. Bacterial inocula were prepared at ca. 1 × 10^6 CFU/mL by diluting 100-fold a 0.5 McFarland suspension in CA-MHB with TES (TREK Diagnostic Systems, Product code: T3462; Batch: 356347; Expiry date: 12-Jun-2019). 50 μL of antibacterial solutions at 2 × the final concentrations were diluted 2-fold with 50 μL of inoculum to give a final inoculum of ca. 5 × 10^5 CFU/mL and desired test concentrations of antibacterial agents. Test plates were incubated according to CLSI guidelines and read visually. MIC values corresponded to the first well with no visible growth.

E. coli ATCC BAA-2523 = assay: MIC by broth microdilution, β-lactam-resistant strain producing OXA-48; format: cell-based, Escherichia coli; conditions: for MIC: Escherichia coli, ATCCBAA2523, β-lactam alone, read-out: MIC β-lactam
Excerpt: as §1, §2, §3, §4, §5

[1] = system: K. pneumoniae ATCC BAA-2524; assay: as above; format: cell-based, Klebsiella pneumoniae; conditions: for MIC: Klebsiella pneumoniae, ATCCBAA2524, β-lactam alone, read-out: MIC β-lactam
Excerpt: as §1, §2, §3, §4, §5

OXA-48 = molecular target: T1, OXA-48 (Klebsiella pneumoniae, UniProt Q6XEC0); assay: OXA-48 primary enzymatic assay (nitrocefin substrate, fluorescence-quenching readout); format: biochemical; conditions: for AC50 / OXA-48 AC50: dose–response, median of triplicate wells, 15 min preincubation, 25 µM nitrocefin; for fold loss in potency/activity versus parent compound: AC50 ratio, parent ID3 for ID6, parent ID2 for 3 and 5–9
T1 construct: made in house; host or cells: E. coli BL21(DE3), T7 expression system
T1 sequence (Q6XEC0 23-265, looked up): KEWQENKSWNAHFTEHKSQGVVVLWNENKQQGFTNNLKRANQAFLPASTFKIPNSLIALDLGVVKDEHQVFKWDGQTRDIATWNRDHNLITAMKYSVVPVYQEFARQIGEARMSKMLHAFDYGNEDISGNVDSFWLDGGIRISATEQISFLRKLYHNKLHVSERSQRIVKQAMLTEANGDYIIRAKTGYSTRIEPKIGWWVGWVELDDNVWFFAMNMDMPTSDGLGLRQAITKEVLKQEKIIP
Protocol: After an initial pilot run (three plates, consisting of 960 randomly selected compounds), the primary screening of the subset plates was carried out at 20 µM in single point against OXA-48 enzyme in a nitrocefin-based assay, using the fluorescence-quenching readout. This enzymatic assay employs the cephalosporin nitrocefin as OXA-48 substrate and takes advantage of the fluorescent properties of white microtiter plates. Chromogenic nitrocefin is hydrolyzed by β-lactamases to yield a product with increased absorbance properties (~495 nm) that quenches the plate fluorescence by absorbing the plate’s emission light. In this assay, test compounds that inhibit OXA-48 catalytic activity are predicted to reduce nitrocefin quenching of plate fluorescence, resulting in a quantitative increase in well fluorescence (ON-system for inhibitors). The nitrocefin-based epi-absorbance readout system has been successfully applied in HTS campaigns on other β-lactamases, such as IMP-1 and VIM-2, with the identification of inhibitors belonging to novel scaffolds displaying a favourable degree of selectivity and sub-micromolar potency.
The screening results were expressed as activity percent. […] Overall, the primary assay robustness was good, with Robust Z Prime factor (RZ′) equal to 0.86.
In total, 256 active molecules (125 from the subset and 131 from the full set) were then assayed in dose–response at eight concentrations from 60 to 0.002 µM with interplate triplicate data points.
The blaOXA gene coding for the OXA-48 ß-lactamase, originally cloned from the K. pneumonia 11978 (a clinical isolate from Istanbul Faculty Hospital, Istanbul, Turkey) was overexpressed via a T7 expression system in E. coli BL21(DE3), and its product, native protein, (final yield of 30 mg/L of culture) was subjected to several purification steps, including ion-exchange chromatography with Q-Sepharose and 20 mM Tris-HCl buffer (pH 9.0), followed by chromatography with S-Sepharose columns and 100 mM sodium phosphate buffer (pH 5.8). Elution of the beta-lactamase was performed with a K2SO4 gradient. Peaks of beta-lactamase activity were concentrated and were dialyzed with 100 mM phosphate buffer (pH 7.0). The OXA-48 enzyme was purified to homogeneity (with a degree of purity around 95.4%.)-as measured by 12% SDS PAGE [23]. OXA-48 protein stock solution (2 mg/mL) was finally prepared in 20 mM Hepes (pH 8,1). OXA-48 β-lactamase specific activity was measured by following the hydrolysis of 100 μM nitrocefin (ε: 17,000 M-1 cm^−1 at 482 nm; Δε: 15,000 M-1 cm^−1 at 482 nm) and corresponding to 60.45 μmoles min^−1 mg^−1 of OXA-48 (kcat = 28.85 s^−1) enzyme. A MW of 28,147 g/mol, calculated from the enzyme sequence was confirmed by MALDI-TOF analysis with a Mass error of ± 2.8 Da.
The primary assay was developed to monitor the enzymatic activity of OXA-48 taking advantage of the spectroscopic properties of white microtiter plates (Optiplate-384, PerkinElmer, #6007290), as indicated by Zuck et al.. Nitrocefin is chromogenic substrate for beta-lactamases with λmax = 395 nm (yellow). Upon hydrolysis by OXA-48, nitrocefin yields (2R)-2-[(R)-carboxy[2-(thiophen-2-yl)acetamido]methyl]-5-[(E)-2-(2,4-dinitrophenyl)ethenyl]-3,6-dihydro-2H-1,3-thiazine-4-carboxylic acid, with increased absorbance properties at λmax = 495 nm. Spectroscopic features of the reaction product are exploited to quench the plate intrinsic fluorescence by absorbing the plate’s emission light, which can be monitored by exciting the reaction at 485 nm and recording the emission at 520 nm. Therefore, the primary assay for HTS was an ON-assay, in which compounds targeting OXA-48 were predicted to elicit an increase of the fluorescence signal.
The primary assay was performed in reaction buffer (20 mM Hepes pH 8.0, 12.5 mM NaCl, 0.005% BSA, 0.0005% Brij-35) in the presence of 0.0014 ng/µL OXA-48 and 25 µM nitrocefin in a final volume of 20 µL/well in 384 MTP format. […]

Row | SMILES | AC50 (OXA-48) | further results
1 | CC1(C)S[C@@H]2[C@H](NC(=O)[C@H](N)c3ccccc3)C(=O)N2[C@H]1C(=O)O [AMP, ampicillin] | – | MIC (E. coli ATCC25922): 4 µg/mL; MIC (E. coli ATCC BAA-2523): > 512 µg/mL; MIC β-lactam (E. coli ATCC BAA-2523; β-lactam alone): >512 µg/mL; MIC [1]: > 512 µg/mL; MIC β-lactam ([1]; β-lactam alone): >512 µg/mL
2 | CCc1ccc(-c2n[nH]c3nc(-c4ccc(C(=O)O)c(F)c4)cc(C(=O)O)c23)cc1 [Compound 1, 6-(4-Carboxy-3-fluorophenyl)-3-(4-ethylphenyl)-1H-pyrazolo[3,4-b]pyridine-4-carboxylic acid] | 0.92 µM | –
3 | CCc1ccc(-c2n[nH]c3nc(-c4ccc(C(=O)O)cc4F)cc(C(=O)O)c23)cc1 [Compound 2, 6-(4-Carboxy-2-fluorophenyl)-3-(4-ethylphenyl)-1H-pyrazolo[3,4-b]pyridine-4-carboxylic acid] | 1.48 µM | –
4 | CCc1ccc(-c2n[nH]c3nc(-c4cccc(C(=O)O)c4)cc(C(=O)O)c23)cc1 [Compound 3, 6-(3-Carboxyphenyl)-3-(4-ethylphenyl)-1H-pyrazolo[3,4-b]pyridine-4-carboxylic acid] | 16.8 µM | fold loss in potency/activity versus parent compound (OXA-48): 17 fold
5 | CCc1ccc(-c2n[nH]c3nc(-c4ccc(CC(=O)O)cc4)cc(C(=O)O)c23)cc1 [Compound 4, 6-(4-(Carboxymethyl)phenyl)-3-(4-ethylphenyl)-1H-pyrazolo[3,4-b]pyridine-4-carboxylic acid] | 4.78 µM | –
6 | CCc1ccc(-c2n[nH]c3nc(-c4cc(F)c(O)cc4F)cc(C(=O)O)c23)cc1 [Compound 5, 6-(2,5-Difluoro-4-hydroxyphenyl)-3-(4-ethylphenyl)-1H-pyrazolo[3,4-b]pyridine-4-carboxylic acid] | 16.2 µM | –
7 | CCc1ccc(-c2n[nH]c3nc(-c4cc(F)c(O)c(F)c4)cc(C(=O)O)c23)cc1 [Compound 6, 6-(3,5-Difluoro-4-hydroxyphenyl)-3-(4-ethylphenyl)-1H-pyrazolo[3,4-b]pyridine-4-carboxylic acid] | 24.4 µM | –
8 | CCc1ccc(-c2n[nH]c3nc(-c4ccc(O)c(F)c4F)cc(C(=O)O)c23)cc1 [Compound 7, 6-(2,3-Difluoro-4-hydroxyphenyl)-3-(4-ethylphenyl)-1H-pyrazolo[3,4-b]pyridine-4-carboxylic acid] | 51.2 µM | –
9 | CCc1ccc(-c2n[nH]c3nc(-c4cc(Cl)c(O)c(OC)c4)cc(C(=O)O)c23)cc1 [Compound 8, 6-(3-Chloro-4-hydroxy-5-methoxyphenyl)-3-(4-ethylphenyl)-1H-pyrazolo[3,4-b]pyridine-4-carboxylic acid] | 13.7 µM | –
10 | CCc1ccc(-c2n[nH]c3nc(-c4cc(F)c(O)c(Cl)c4)cc(C(=O)O)c23)cc1 [Compound 9, 6-(3-Chloro-5-fluoro-4-hydroxyphenyl)-3-(4-ethylphenyl)-1H-pyrazolo[3,4-b]pyridine-4-carboxylic acid] | 63.8 µM | –
11 | CCc1ccc(-c2n[nH]c3nc(-c4ccc(C(=O)O)cc4)ccc23)cc1 [Compound 10, 4-(3-(4-Ethylphenyl)-1H-pyrazolo[3,4-b]pyridin-6-yl)benzoic acid] | > 100 µM | –
12 | CCc1ccc(-c2n[nH]c3nc(-c4ccc(C(=O)O)cc4)cc(C(F)(F)F)c23)cc1 [Compound 11, 4-(3-(4-Ethylphenyl)-4-(trifluoromethyl)-1H-pyrazolo[3,4-b]pyridin-6-yl)benzoic acid] | > 100 µM | –
13 | CCc1ccc(-c2n[nH]c3nc(-c4ccc(C(=O)O)cc4)cc(CO)c23)cc1 [Compound 12, 4-(3-(4-Ethylphenyl)-4-(hydroxymethyl)-1H-pyrazolo[3,4-b]pyridin-6-yl)benzoic acid] | > 100 µM | OXA-48 AC50 (OXA-48): complete loss of activity
14 | CCc1ccc(-c2n[nH]c3nc(-c4ccc(C(=O)O)cc4)cc(CC)c23)cc1 [Compound 13, 4-(4-Ethyl-3-(4-ethylphenyl)-1H-pyrazolo[3,4-b]pyridin-6-yl)benzoic acid] | > 100 µM | –
15 | CCc1ccc(-c2n[nH]c3nc(-c4ccc(C(=O)O)cc4)cc(C(N)=O)c23)cc1 [Compound 14, 4-(4-Carbamoyl-3-(4-ethylphenyl)-1H-pyrazolo[3,4-b]pyridin-6-yl)benzoic acid] | – | OXA-48 AC50 (OXA-48): complete loss of activity
16 | O=C(O)c1ccc(/C=N/n2c(S)nnc2-c2ccc(Cl)cc2Cl)cc1 [ID4] | 3.17 µM | –
17 | O=C(O)c1ccc(/C=N/n2c(S)nnc2C2CCCCC2)cc1 [ID5] | 2.88 µM | –
18 | O=C(O)c1ccc(/C=N/n2cnnc2S)cc1 [ID6] | 15.7 µM | fold loss in potency/activity versus parent compound (OXA-48): more than 20 fold
19 | COC(=O)c1ccc(/C=N/n2c(S)nnc2-c2ccccc2)cc1 [ID9] | 35.6 µM | –
20 | N#Cc1ccc(/C=N/n2c(S)nnc2-c2ccccc2)cc1 [ID11] | 12 µM | –
21 | Sc1nnc(-c2ccccc2)n1/N=C/c1cccs1 [ID23] | 24.8 µM | –
22 | CCc1ccc(-c2n[nH]c3nc(-c4ccccc4)cc(C(=O)O)c23)cc1 [ID30] | 249 µM | OXA-48 AC50 (OXA-48): inactive
23 | CCc1ccc(-c2n[nH]c3nc(-c4ccccc4O)cc(C(=O)O)c23)cc1 [ID31] | – | OXA-48 AC50 (OXA-48): inactive
24 | C[C@@H](O)[C@H]1C(=O)N2C(C(=O)O)=C(SCCN=CN)C[C@H]12 [IMP, imipenem] | – | MIC (E. coli ATCC25922): 0.12 µg/mL; MIC (E. coli ATCC BAA-2523): 2 µg/mL; MIC [1]: 4 µg/mL
